Experimental findings from paper PMC11095988, “The Molecular Mechanism of FABP4 Inhibition Effects of GAS and 4-HBA in Gastrodia elata Blume Was Discussed Based on NMR and Molecular Docking” (Journal of Analytical Methods in Chemistry, 2024) are described below.

For test [1], the target named is T1, FABP4 (Homo sapiens, UniProt P15090).
T1 sequence (P15090 2-132): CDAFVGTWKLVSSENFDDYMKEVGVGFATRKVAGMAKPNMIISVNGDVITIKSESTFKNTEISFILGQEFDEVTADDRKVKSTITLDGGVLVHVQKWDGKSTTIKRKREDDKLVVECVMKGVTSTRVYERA
The test is described as follows: fluorescent probe, emission shift on binding to FABP4.

In test [2] the target is T1, FABP4. The test is described as follows: fluorescence displacement; STD-NMR (weak signal) and ligand-observed 1H-NMR. Type of test: binding.
Test [3] has as its target T1, FABP4. Put plainly: fluorescence displacement; STD-NMR and ligand-observed 1H-NMR. Type of test: binding.

Take `O=S(=O)(O)c1cccc2cccc(Nc3ccccc3)c12` [1,8-ANS, 8-anilino-1-naphthalenesulfonic acid]: the “fluorescent probe, emission shift on binding to FABP4” value at FABP4 [1] is given as “When ANS binds to FABP4, its maximum emission light will be blue-shifted”.

In turn, `OCc1ccc(O)cc1` [4-HBA, 4-hydroxybenzyl alcohol] displayed an IC50 at FABP4 [2] of 50.5 µM.

The compound `OCc1ccc(O[C@@H]2O[C@H](CO)[C@@H](O)[C@H](O)[C@H]2O)cc1` [GAS, gastrodin] gave a half-maximal inhibitory concentration (IC50) at FABP4 [3] of 29.8 µM.
